Measurements: publication PMC3726336, “Product inhibition of cellulases studied with ^14C-labeled cellulose substrates” (Biotechnology for Biofuels, 2013)
Read-outs that look alike come from different tables or passages of the source.

Key:
Format in all cases: biochemical
[1] = target: T1, AtCel7A (Acremonium thermophilum, UniProt A7WNT9); assay: Inhibition of synergistic hydrolysis of 14C-BC by AtCel7A (supplemented with EG TrCel5A); conditions: 14C-BC substrate, read-out: IC50 for cellobiose
Procedure: To study the cellobiose inhibition of GH7 CBHs, the synergistic hydrolysis of ^14C-BC in the presence of added cellobiose was followed (Figure 3, Additional file 1: Figures S1 and S2). Because the cellobiose inhibition of the EG TrCel5A is much weaker than that of GH7 CBHs, the inhibition of synergistic hydrolysis apparently reflects the inhibition of CBH. The strength of cellobiose inhibition was analyzed using plots of (DCB/DCB=0) versus [cellobiose], where DCB and DCB=0 represent the degree of conversion of ^14C-BC in the presence and absence of cellobiose, respectively (Figure 4, Additional file 1: Figure S3). In the case of experiments without added cellobiose, the reactions were provided with N188BG to prevent the inhibition of the CBH by the cellobiose released during hydrolysis. Experiments with no added cellobiose and without BG were also conducted. […] Therefore, the concentration of the cellobiose released during hydrolysis was added to the concentration of externally supplied cellobiose in generating the plots in Figure 4 and Additional file 1: Figure S3. For the calculation of IC50 values, the data were first fitted to hyperbolae:
where [CB] is the concentration of cellobiose; [^14CBC] is the concentration of ^14C-BC used in the experiment; and C1, C2 and H are empirical constants. Equation 5 differs from Equation 1 by the presence of constant H. H was included to improve the fit and is a constant that accounts for the background radioactivity (the degree of conversion that is independent of CBH). The degree of conversion resulting from the activity of the EG was measured in a separate experiment (Additional file 1: Figure S4) and was subtracted from the degree of conversion resulting from the synergistic hydrolysis. Thus, in the case of complete inhibition, H should have a value of zero. […] Provided with the values of C1, C2 and H, the value of IC50 was calculated as follows: […]
Using the time course data measured in the presence and absence of cellobiose, the IC50 values were first found separately for each time point (Figure 4A). […]

[2] = target: T1, AtCel7A; assay: Cellobiose inhibition of MUL hydrolysis by AtCel7A; conditions: MUL substrate (5 μM)
Description: (§1) The cellobiose inhibition of GH7 CBHs is most often studied on low-Mw model substrates. However, it has been shown that the inhibition of CBHs acting on low-Mw substrates appears to be much stronger than that on cellulose substrates. The Ki values for cellobiose inhibition of GH7 CBHs measured on low-Mw substrates are in the micromolar range [44, 51, 52], whereas those measured on cellulose are in the low- to high-millimolar range [28, 31, 32]. […] Unfortunately, the inhibition of this enzyme on cellulose has not been studied. We also studied the cellobiose inhibition of GH7 CBHs acting on MUL. The initial rates of MUL hydrolysis measured in the presence and absence of added cellobiose were first analyzed according to Equation 1, and the IC50 values were found using Equation 2. […] The inhibition of MUL hydrolysis is attributable to the binding of cellobiose to the product sites (+1/+2) of TrCel7A [52]. […]
(§2) For the inhibition of enzyme acting on the low-Mw substrate, the initial rates of the hydrolysis of MUL in the presence and absence of added cellobiose were followed. […] Reactions were stopped by the addition of NH3 (final concentration 0.1 M), and the released 4-methylumbelliferone was quantified by fluorescence using excitation and emission wavelengths of 360 nm and 450 nm, respectively.

[3] = target: TaCel7A (Thermoascus aurantiacus, UniProt A7WNU2); assay: Cellobiose inhibition of MUL hydrolysis by TaCel7A; conditions: MUL substrate (5 μM)
Sequence of TaCel7A (A7WNU2 entry or part of it): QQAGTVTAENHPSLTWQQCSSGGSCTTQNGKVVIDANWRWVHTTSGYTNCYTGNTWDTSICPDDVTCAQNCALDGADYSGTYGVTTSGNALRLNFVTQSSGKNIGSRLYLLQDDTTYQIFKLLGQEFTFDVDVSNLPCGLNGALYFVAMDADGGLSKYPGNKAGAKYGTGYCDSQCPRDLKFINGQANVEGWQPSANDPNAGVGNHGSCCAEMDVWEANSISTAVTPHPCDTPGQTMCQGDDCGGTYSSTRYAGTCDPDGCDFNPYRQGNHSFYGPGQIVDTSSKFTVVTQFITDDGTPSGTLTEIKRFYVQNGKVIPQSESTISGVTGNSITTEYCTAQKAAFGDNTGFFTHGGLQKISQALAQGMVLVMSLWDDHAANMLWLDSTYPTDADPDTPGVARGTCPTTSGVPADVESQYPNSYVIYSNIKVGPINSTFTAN
Description: as §1, §2

T1 sequence (A7WNT9 entry or part of it): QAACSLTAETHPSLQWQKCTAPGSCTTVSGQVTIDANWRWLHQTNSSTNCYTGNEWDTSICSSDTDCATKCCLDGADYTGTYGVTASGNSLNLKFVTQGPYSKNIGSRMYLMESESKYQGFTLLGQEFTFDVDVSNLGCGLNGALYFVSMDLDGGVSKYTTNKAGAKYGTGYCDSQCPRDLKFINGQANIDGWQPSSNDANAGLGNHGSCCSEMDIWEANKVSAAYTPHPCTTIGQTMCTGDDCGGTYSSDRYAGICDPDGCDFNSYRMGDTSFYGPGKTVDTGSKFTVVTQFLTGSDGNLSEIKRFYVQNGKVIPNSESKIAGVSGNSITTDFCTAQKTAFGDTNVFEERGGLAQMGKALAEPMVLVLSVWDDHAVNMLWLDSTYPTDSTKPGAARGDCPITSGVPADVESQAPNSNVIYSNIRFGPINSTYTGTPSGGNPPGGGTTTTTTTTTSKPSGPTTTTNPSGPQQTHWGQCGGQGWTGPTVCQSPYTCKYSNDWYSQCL

O=C[C@H](O)[C@@H](O)[C@H](O[C@@H]1O[C@H](CO)[C@@H](O)[C@H](O)[C@H]1O)[C@H](O)CO [cellobiose, Cellobiose] gave an IC50 ([1]; 25°C, IC50 decreased with hydrolysis time) of 190 ± 100 µM, an IC50 ([1]; 35°C) of 440 ± 100 µM and an IC50 ([1]; 50°C, IC50 increased with hydrolysis time) of 2120 ± 1400 µM. For the same compound, the Ki ([2]; 35°C) was 95 µM, the Ki ([2]; 50°C) was 233 µM and the Ki ([3]; 35°C) was 176 µM. It also gave a Ki ([3]; 50°C) of 355 µM.
